Here are results for 25 compounds from BindingDB's records for doi:10.1021/jm0304156 (Harvard Medical School, 2003).

What is called Ki is a measure of affinity in units of concentration, obtained from inhibition or displacement.

Each structure is given as a SMILES string. Bounds are passed on as bounds.

The assay is described as follows: Binding affinity against opioid receptor delta 1 using [3H]naltrindole as radioligand in guinea pig brain membranes.
The compound `c1cc2c(cc1-c1nnn[nH]1)[C@@]13CCCC[C@H]1[C@@H](C2)N(CC1CCC1)CC3` [3-(1'H-Tetrazol-5'-yl)-N-cyclobutylmethylmorphinan] had a Ki above 10000 nM.
Compound `CN1CC[C@]23CCCC[C@H]2[C@H]1Cc1ccc(-c2nnn[nH]2)cc13` [3-(1'H-Tetrazol-5'-yl)-N-methylmorphinan] displayed an inhibitory constant (Ki) above 10000 nM.
Regarding `Nc1ccc2c(c1)[C@@]13CCCC[C@H]1[C@@H](C2=O)N(CC1CCC1)CC3` [3-Amino-10-keto-N-cyclobutylmethylmorphinan], the inhibition constant (Ki) was 600 nM.
The same measure for `NCc1ccc2c(c1)[C@@]13CCCC[C@H]1[C@@H](C2)N(CC1CCC1)CC3` [3-Aminomethyl-N-cyclobutylmethylmorphinan]: 410 nM; for `CN1CC[C@]23CCCC[C@H]2[C@H]1Cc1ccc(CN)cc13` [3-Aminomethyl-N-methylmorphinan]: 2500 nM; for `NC(=O)c1ccc2c(c1)[C@@]13CCCC[C@H]1[C@@H](C2=O)N(CC1CCC1)CC3` [3-Carboxamido-10-keto-N-cyclobutylmethylmorphinan]: 50 nM.
The same measure for `NC(=O)c1ccc2c(c1)[C@@]13CCCC[C@H]1[C@@H](C2)N(CC1CCC1)CC3` [3-Carboxamido-N-cyclobutylmethylmorphinan]: 4 nM; for `NC(=O)c1ccc2c(c1)[C@@]13CCCC[C@H]1[C@@H](C2)N(CC1CC1)CC3` [3-Carboxamido-N-cyclopropylmethylmorphinan]: 1 nM.
In turn, `CN1CC[C@]23CCCC[C@H]2[C@H]1Cc1ccc(C(N)=O)cc13` [3-Carboxamido-N-methylmorphinan] yielded a Ki of 13 nM. Against the preceding compound, the Ki is about 13-fold higher.
Compound `O=C(O)c1ccc2c(c1)[C@@]13CCCC[C@H]1[C@@H](C2=O)N(CC1CCC1)CC3` [3-Carboxyl-10-keto-N-cyclobutylmethyl morphinan] returned a Ki of 800 nM.
On to `N#Cc1ccc2c(c1)[C@@]13CCCC[C@H]1[C@@H](C2=O)N(CC1CCC1)CC3` [3-Cyano-10-keto-N-cyclobutylmethylmorphinan], for which the Ki is above 10000 nM.
Consider `N#Cc1ccc2c(c1)[C@@]13CCCC[C@H]1[C@@H](C2)N(CC1CCC1)CC3` [3-Cyano-N-cyclobutylmethylmorphinan], for which the Ki came to 1900 nM.
`CN1CC[C@]23CCCC[C@H]2[C@H]1Cc1ccc(C#N)cc13` [3-Cyano-N-methylmorphinan] returned a Ki above 1000 nM.
The compound `O=C1c2ccc(O)cc2[C@@]23CCCC[C@H]2[C@@H]1N(CCF)CC3` [3-Hydroxy-10-keto-N-(2-fluoroethyl)morphinan] showed a Ki above 10000 nM.
With `COCCN1CC[C@]23CCCC[C@H]2[C@H]1C(=O)c1ccc(O)cc13` [3-Hydroxy-10-keto-N-(2-methoxyethyl)morphinan], the inhibition constant (Ki) is above 10000 nM.
Compound `O=C1c2ccc(O)cc2[C@@]23CCCC[C@H]2[C@@H]1N(Cc1ccc2ccccc2c1)CC3` [3-Hydroxy-10-keto-N-(2-naphthylmethyl)morphinan] gave a Ki above 10000 nM.
With `CC(C)=CCN1CC[C@]23CCCC[C@H]2[C@H]1C(=O)c1ccc(O)cc13` [3-Hydroxy-10-keto-N-(3,3-dimethylallyl)morphinan], the affinity, expressed as Ki, was 1100 nM.
With `O=C1c2ccc(O)cc2[C@@]23CCCC[C@H]2[C@@H]1N(C[C@@H]1CCCO1)CC3` [3-Hydroxy-10-keto-N-(tetrahydrofuran-2-yl)methylmorphinan], the inhibitory constant (Ki) stood at 1 nM.
Take `O=C1c2ccc(O)cc2[C@@]23CCCC[C@H]2[C@@H]1N(CC1CC1)CC3` [3-Hydroxy-10-keto-N-cyclopropylmethylmorphinan]: the inhibitory constant (Ki) was 150 nM.
Compound `CN1CC[C@]23CCCC[C@H]2[C@H]1C(=O)c1ccc(O)cc13` [3-Hydroxy-10-keto-N-methylmorphinan] returned a Ki of 1200 nM.
As for `COc1ccc2c(c1)[C@@]13CCCC[C@H]1[C@H](NCC3)C2=O` [3-Methoxy normorphinan], the Ki stood at 16 nM.
With `O=C1c2ccc(OCC3CCC3)cc2[C@@]23CCCC[C@H]2[C@@H]1N(CC1CCC1)CC3` [3-O-Cyclobutylmethyl-10-keto-N-cyclobutylmethylmorphinan], the inhibition constant Ki was above 10000 nM.
`C#CCOc1ccc2c(c1)[C@@]13CCCC[C@H]1[C@@H](C2=O)N(CC#C)CC3` [3-O-Propargyl-10-keto-N-propargylmorphinan] returned an inhibitory constant (Ki) above 10000 nM.
As for `O=C1c2ccc(-c3nnn[nH]3)cc2[C@@]23CCCC[C@H]2[C@@H]1N(CC1CCC1)CC3` [3-Tetrazolo-10-keto-N-cyclobutylmethylmorphinan], the affinity corresponds to a Ki of 1800 nM. That is a single-digit micromolar value.
In turn, `O=C1c2ccc(O)cc2[C@@]23CCCC[C@H]2[C@@H]1NCC3` [3-hydroxy-normorphinan] returned an inhibitory constant (Ki) above 10000 nM.
